Experiment: in vitro
Conditions: microsomes, pH 7.4
Procedure: The metabolic stability of a test compound is assayed at 37° C. using pooled liver microsomes (mouse or human liver microsomes). An aliquot of 10 μL of 50 μM test compound is mixed with 490 μL of 0.611 mg/mL liver microsomes, then 50 μL of the mixtures are dispensed to the 96 well tubes and warmed at 37° C. for 10 minutes. The reactions are initiated by adding 50 μL of the pre-warmed NADPH regeneration system solution (add 1.2 μL solution, 240 μl solution B, mix with 10.56 ml KPBS) and then incubated at 37° C. The final incubation solution contains 100 mM potassium phosphate (pH 7.4), 1.3 mM NADP+, 3.3 mM glucose 6-phosphate, 0.4 Unit/mL of glucose 6-phosphate dehydrogenase, 3.3 mM magnesium chloride, 0.3 mg/mL liver microsomes and 0.5 μM test article. After 0, 15, 30 and 60 minutes in a shaking incubator, the reactions are terminated by adding 100 μL of acetonitrile containing 200 nM buspirone as an internal standard. All incubations are conducted in duplicate. […] Samples are then centrifuged at 3500 rpm for 10 minutes (4° C.) using Sorvall Legend XRT Centrifuge (Thermo Scientific, GE). Supernatants (40 μL) are transferred into clean 96-deep well plates. Each well is added with 160 μL of ultrapure water (Milli-Q, Millipore Corporation) with 0.1% (v/v) formic acid (Fisher Chemical), mixed thoroughly and subjected to LC/MS/MS analysis in MRM positive ionization mode.
All the samples are measured using a mass spectrometer (QTrap 5500 quadrupole/ion trap) coupled with a Shimadzu HPLC system. The HPLC system consisted of a Shimadzu series degasser, binary quaternary gradient pumps, column heater coupled to an autosampler, and a Phenomenex Gemini-NX, C18, 3.0 μm or Phenomenex Lunar, C8, 5.0 μM HPLC column (Phenomenex, Torrance, CA), and eluted with a mobile phase gradient consisting of Solution A (0.1% formic acid water) and Solution B (0.1% formic acid acetonitrile). The column temperature is maintained at 40° C. All the analytes are detected with positive-mode electrospray ionization (ES+).
The half-life for the metabolic degradation of the test compound is calculated by plotting the time-course disappearance of the test compound during the incubation with liver microsomes. Each plot is fitted to a first-order equation for the elimination of the test compound (% remaining compound) versus time using non-linear regression (Equation 1).
where Ct is the mean relative substrate concentration at time t and C0 is the initial concentration (0.5 μM) at time 0. Note that the area ratio of the substrate peak to an internal standard peak is proportional to the analyte concentration and is used for regression analysis to derive a value of k.

SMILES	half-life at 0.5 μM [min]
C#Cc1c(F)ccc2cc(O)cc(-c3ccc4c(N5CC6CCC(C5)N6C(=O)n5cncn5)nc(OC[C@@]56CCCN5C[C@H](F)C6)nc4c3F)c12 [Compound A281, (3-(7-(8-ethynyl-7-fluoro-3-hydroxynaphthalen-1-yl)-8-fluoro-2-(((2R,7aS)-2-fluoro-tetrahydro-1H-pyrrolizin-7a(5H)-yl)methoxy)quinazolin-4-yl)-3,8-diazabicyclo[3.2.1]-octan-8-yl)(1H-1,2,4-triazol-1-yl)methanone]	> 10
N#Cc1c(N)sc2c(F)ccc(-c3c(Cl)cc4c(N5CC6CCC(C5)N6C(=O)n5ccnc5C#N)nc(OC[C@@]56CCCN5C[C@H](F)C6)nc4c3F)c12 [Compound A220, 1-(3-(7-(2-amino-3-cyano-7-fluorobenzo[b]thiophen-4-yl)-6-chloro-8-fluoro-2-(((2R,7aS)-2-fluorotetrahydro-1H-pyrrol-izin-7a(5H)-yl)methoxy)quin-azolin-4-yl)-3,8-diazabicyclo-[3.2.1]octane-8-carbonyl)-1H-imidazole-2-carbonitrile]	> 10
C#Cc1c(F)ccc2cc(O)cc(-c3ncc4c(N5CC6CCC(C5)N6C(=O)n5ccnc5)nc(OC[C@@]56CCCN5C[C@H](F)C6)nc4c3F)c12 [Compound A163, (3-(7-(8-ethynyl-7-fluoro-3-hydroxynaphthalen-1-yl)-8-fluoro-2-(((2R,7aS)-2-fluoro-tetrahydro-1H-pyrrolizin-7a(5H)-yl)methoxy)pyrido[4,3-d]pyrimidin-4-yl)-3,8-diaza-bicyclo[3.2.1]octan-8-yl)(1H-imidazol-1-yl)methanone]	> 10
C#Cc1c(F)ccc2cc(O)cc(-c3ncc4c(N5CC6CCC(C5)N6C(=O)n5cc(C#N)cn5)nc(OC[C@@]56CCCN5C[C@H](F)C6)nc4c3F)c12 [Compound A143, 1-(3-(7-(8-ethynyl-7-fluoro-3-hydroxynaphthalen-1-yl)-8-fluoro-2-(((2R,7aS)-2-fluoro-tetrahydro-1H-pyrrolizin-7a(5H)-yl)methoxy)pyrido[4,3-d]pyrimidin-4-yl)-3,8-diaza-bicyclo[3.2.1]octane-8-carbon-yl)-1H-pyrazole-4-carbonitrile]	> 10
N#Cc1ccn(C(=O)N2C3CCC2CN(c2nc(OC[C@@]45CCCN4C[C@H](F)C5)nc4c(F)c(-c5ccc(F)c6sc(N)c(C#N)c56)c(Cl)cc24)C3)n1 [Compound A224, 1-(3-(7-(2-amino-3-cyano-7-fluorobenzo[b]thiophen-4-yl)-6-chloro-8-fluoro-2-(((2R,7aS)-2-fluorotetrahydro-1H-pyrrolizin-7a(5H)-yl)methoxy)quinazolin-4-yl)-3,8-diazabicyclo[3.2.1]-octane-8-carbonyl)-1H-pyrazole-3-carbonitrile]	> 10
N#Cc1c(N)sc2c(F)ccc(-c3c(Cl)cc4c(N5CC6CCC(C5)N6C(=O)Nc5ncccn5)nc(OC[C@@]56CCCN5C[C@H](F)C6)nc4c3F)c12 [Compound A215, 3-(7-(2-amino-3-cyano-7-fluorobenzo[b]thiophen-4-yl)-6-chloro-8-fluoro-2-(((2R,7aS)-2-fluorotetrahydro-1H-pyrrolizin-7a(5H)-yl)methoxy)quinazolin-4-yl)-N-(pyrimidin-2-yl)-3,8-diazabicyclo[3.2.1]octane-8-carboxamide]	> 10
N#Cc1c(N)sc2c(F)ccc(-c3ncc4c(N5CC6CCC(C5)N6C(=O)n5cncn5)nc(OC[C@@]56CCCN5C[C@H](F)C6)nc4c3F)c12 [Compound A206, 4-(4-(8-(1H-1,2,4-triazole-1-carbonyl)-3,8-diazabicyclo-[3.2.1]octan-3-yl)-8-fluoro-2-(((2R,7aS)-2-fluorotetrahydro-1H-pyrrolizin-7a(5H)-yl)meth-oxy)pyrido[4,3-d]pyrimidin-7-yl)-2-amino-7-fluorobenzo[b]-thiophene-3-carbonitrile]	> 10
N#Cc1c(N)sc2c(F)ccc(-c3c(Cl)cc4c(N5CC6CCC(C5)N6C(=O)n5ccnc5)nc(OC[C@@]56CCCN5C[C@H](F)C6)nc4c3F)c12 [Compound A105, 4-(4-(8-(1H-imidazole-1-carbonyl)-3,8-diazabicyclo-[3.2.1]octan-3-yl)-6-chloro-8-fluoro-2-(((2R,7aS)-2-fluoro-tetrahydro-1H-pyrrolizin-7a(5H)-yl)methoxy)quinazolin-7-yl)-2-amino-7-fluorobenzo-[b]thiophene-3-carbonitrile]	> 10
Nc1nc2c(-c3c(Cl)cc4c(N5CC6CCC(C5)N6C(=O)n5cncn5)nc(OC[C@@]56CCCN5C[C@H](F)C6)nc4c3F)ccc(F)c2s1 [Compound A111, (3-(7-(2-amino-7-fluorobenzo-[d]thiazol-4-yl)-6-chloro-8-fluoro-2-(((2R,7aS)-2-fluoro-tetrahydro-1H-pyrrolizin-7a(5H)-yl)methoxy)quinazolin-4-yl)-3,8-diazabicyclo[3.2.1]-octan-8-yl)(1H-1,2,4-triazol-1-yl)methanone]	> 10
N#Cc1c(N)sc2c(F)ccc(-c3c(Cl)cc4c(N5CC6CCC(C5)N6C(=O)n5cncn5)nc(OC[C@@]56CCCN5C[C@H](F)C6)nc4c3F)c12 [Compound A260, 4-(4-(8-(1H-1,2,4-triazole-1-carbonyl)-3,8-diazabicyclo-[3.2.1]octan-3-yl)-6-chloro-8-fluoro-2-(((2R,7aS)-2-fluoro-tetrahydro-1H-pyrrolizin-7a(5H)-yl)methoxy)quinazolin-7-yl)-2-amino-7-fluorobenzo-[b]thiophene-3-carbonitrile]	> 10
C#Cc1c(F)ccc2cc(O)cc(-c3ncc4c(N5CC6CCC(C5)N6C(=O)Nc5ncccn5)nc(OC[C@@]56CCCN5C[C@H](F)C6)nc4c3F)c12 [Compound A131, 3-(7-(8-ethynyl-7-fluoro-3-hydroxynaphthalen-1-yl)-8-fluoro-2-(((2R,7aS)-2-fluoro-tetrahydro-1H-pyrrolizin-7a(5H)-yl)methoxy)pyrido[4,3-d]pyrimidin-4-yl)-N-(pyrimidin-2-yl)-3,8-diazabicyclo[3.2.1]-octane-8-carboxamide]	> 10
N#Cc1c(N)sc2c(F)ccc(-c3c(Cl)cc4c(N5CC6CCC(C5)N6C(=O)n5cc(C(F)(F)F)cn5)nc(OC[C@@]56CCCN5C[C@H](F)C6)nc4c3F)c12 [Compound A122, 2-amino-4-(6-chloro-8-fluoro-2-(((2R,7aS)-2-fluorotetrahydro-1H-pyrrolizin-7a(5H)-yl)meth-oxy)-4-(8-(4-(trifluoromethyl)-1H-pyrazole-1-carbonyl)-3,8-diazabicyclo[3.2.1]octan-3-yl)-quinazolin-7-yl)-7-fluorobenzo-[b]thiophene-3-carbonitrile]	> 10
N#Cc1cnn(C(=O)N2CC3COCC(C2)N3c2nc(OC[C@@]34CCCN3C[C@H](F)C4)nc3c(F)c(-c4ccc(F)c5sc(N)c(C#N)c45)c(Cl)cc23)c1 [Compound A249, 1-(9-(7-(2-amino-3-cyano-7-fluorobenzo[b]thiophen-4-yl)-6-chloro-8-fluoro-2-(((2R,7aS)-2-fluorotetrahydro-1H-pyrrolizin-7a(5H)-yl)methoxy)quinazolin-4-yl)-3-oxa-7,9-diazabicyclo-[3.3.1]nonane-7-carbonyl)-1H-pyrazole-4-carbonitrile]	> 10

Source: patent publication US20240368191A1, “HETEROCYCLIC COMPOUNDS AND USES THEREOF” (Kumquat Biosciences Inc., priority 2021, published 2024)
